From patent publication US20250115595A1, “INHIBITORS OF HYPOXIA-INDUCIBLE FACTORS” (The Johns Hopkins University, priority 2021, published 2025)

Legend:
HIF-1α and HIF-2α [1] = assay: Immunoblot of HIF-1α and HIF-2α accumulation in hypoxic MIO-M1 cells; format: cell-based, human; settings: as little as 1 μM, 4 hours
Description: It has previously been reported that the cells in the inner nuclear layer of the retina that express VEGF in response to hypoxia/ischemia are Müller glial cells (X. Xin et al., Proc Natl Acad Sci USA 110, E3425-3434 (2013)). […] The effects of 32-134D on HIF-1α accumulation persisted up to 16 hours after treatment of cultured cells (FIG. 27B).
Cells culture and reagents: MIO-M1 cells were a gift from Dr. Astrid Limb (University College London, Institute of Ophthalmology, London, United Kingdom). MIO-M1 and HUVEC cells were cultured in DMEM with 10% (vol/vol) FBS (Quality Biological) and 1% penicillin/streptomycin (Cellgro). Hypoxia chambers were used to expose cells. Evans Blue (E2129) was purchased from Sigma-Aldrich.
Immunoblot assays and ELISAs: Cell, neurosensory retina, and D120 retinal organoid lysates were subjected to 4-15% gradient SDS/PAGE (Invitrogen). Immunoblot assays were performed as previously described (X. Xin et al., 2013, Proc Natl Acad Sci USA 110, E3425-3434).

HIF-1α and HIF-2α [2] = assay: HIF accumulation in hypoxic D120 hiPSC-derived retinal organoids; format: cell-based, human; settings: 1% O2, 12 hours
Description: To assess the therapeutic potential of 32-134D for diabetic patients, human induced pluripotent stem cell (hiPSC)-derived 3-dimensional (3D) retinal organoids were treated with 32-134D. It has been previously reported that hiPSC-derived 3D retinal organoids cultured under hypoxic conditions (1% O2) behave similar to ischemic human retinal tissue with increased accumulation of both HIF-1α and HIF-2α (J. Zhang et al., J Clin Invest 131 (2021)). By 120 days of differentiation (D120), the inner and outer retinal layers are clearly defined (FIGS. 32A and 32B) and contain the precursors of the major retinal cell types, including outer retina photoreceptors (expressing recoverin), few newly differentiating bipolar cell precursors (lacking expression of recoverin and Pax6), amacrine cells (expressing high levels of Pax6), as well as Müller cells (expressing CRALBP; FIGS. 32C and 32D).
Retinal organoids: An hiPSC line derived from CD34+ cord blood was used in this study (A18945, ThermoFisher Scientific) (P. W. Burridge et al., 2011, PLoS One 6, e18293). Undifferentiated hiPSCs and derived retinal organoids were routinely tested for Mycoplasma contamination by PCR. Cell culture, retinal differentiation, and organoid formation were conducted as previously described (X. Zhong et al., 2014, Nat Commun 5, 4047). Retinal organoids at 120 days of differentiation were used for experiments. […]

STZ mice = assay: STZ diabetic mouse model, intraperitoneal dosing; format: in vivo; settings: 5 daily IP injections 40 mg/kg
Description: The ability of 32-143D to inhibit vascular permeability in diabetic patients was evaluated using the streptozotocin (STZ) model for diabetic macular edema. 8-to-10-week-old C57BL/6 mice were administered STZ by IP injection. Hyperglycemia (serum glucose >250 mg/dL) was confirmed by glucometer 2 weeks later. After 6 months of sustained hyperglycemia, mice were treated with 5 daily IP injections with 32-134D at 40 mg/kg or with vehicle control. 24 hours after the fifth IP injection, mice were euthanized, Evans blue perfusion was performed, and retina flat mounts were examined for vascular leakage.
Vascular permeability by Evans blue tracer method: Mice were anesthetized with a mixture of ketamine (50 mg/kg) and xylazine (5 mg/kg) and subjected to Evans blue (Sigma) (50 mg/kg) perfusion by penile vein injection. […] Images were captured by Zeiss fluorescent microscope or confocal microscopy and fluorescence quantified by image J software (NIH). […] Blinded quantification of the number of leaking vessels was performed by manual counting major leakage from capillaries from retinas of each group. Non-capillary artifactual Evans blue or FITC-dextran leakage due to flat mount processing as well as minor leakages were not included in the quantitation. […] Random fields were chosen from retinas where leakages were absent to determine baseline fluorescence that arise from capillaries. […]

OIR mice = assay: OIR mouse model, intraocular dosing; format: in vivo
Description: The efficacy of 32-134D following intraocular administration with 70 ng, as well as a lower dose (14 ng), in OIR mice at P12 (J. Zhang et al., J Clin Invest 131 (2021)) was determined.
The efficacy of 32-134D following IVT administration was also evaluated in the OIR model. At P14, pups were treated with a single intravitreal injection with 32-134D (14 or 70 ng) in 1 ul or with vehicle (DMSO) control. At P17, retinal flat mounts were stained with isolectin-B4 to examine the development of retinal neovascularization.
Intraocular injections: Intravitreal injections were performed with a PLI-100A Pico-liter Microinjector (Warner Instruments, Harvard Bioscience) using pulled-glass micropipettes. Each micropipette was calibrated to deliver a 1 μl volume on depression of a foot switch. The mice were anesthetized with a ketamine (100 mg/kg) and xylazine (5 mg/kg) mixture, and under a dissecting microscope, the sharpened tip of the micropipette was passed through the sclera just posterior to the limbus into the vitreous cavity and the foot switch was depressed, which caused fluid to penetrate into the vitreous space. Test compound was injected into the vitreous cavity in OIR and STZ mice for vascular permeability test, retinal vasculature and lysates for WB and qPCR analysis.
OIR mouse model: OIR experiments were performed as previously described (M. Rodrigues et al., 2013, Diabetes 62, 3863-3873). Briefly, C57BL/6 mice were placed in 75% O2 on P7. On P12, the mice were returned to room air and administered either by IP injection (digoxin and test compound) or by intravitreal injection. Mice with body weight less than 6 g at P17 were excluded from analysis. The data were collected from both males and females and the results combined, as there was no apparent difference between sexes. Representative images for selected time points from a minimum of three independent experiments are shown. Data from 3-8 pups were obtained at each time point.

## Brc1ccc2c(-c3csc(-c4c[nH]c5c(Br)cccc45)n3)c[nH]c2c1 [Compound 32-134D, 4-(6-bromo-1H-indol-3-yl)-2-(7-bromo-1H-indol-3-yl)thiazole]
HIF-1α and HIF-2α [1]
  HIF-1α and HIF-2α protein accumulation in response to hypoxia: decreased
HIF-1α and HIF-2α [2]
  accumulation of HIF-1α and HIF-2α protein: effectively prevented
STZ mice
  vascular leakage (Evans blue fluorescence intensity): significantly decreased vascular leakage
OIR mice; single 14-ng intraocular injection, P13 and P14
  HIF-1α and HIF-2α protein accumulation in retina: marked reduction
OIR mice; single intraocular injection at P12, P17
  expression of mRNAs encoding VEGF, KDR and other HIF-regulated angiogenic mediators: decreased expression
OIR mice; single intravitreal injection 14 or 70 ng at P14, P17
  retinal neovascularization: significant decrease
